# Results from patent US20220105072A1, “PHARMACEUTICAL COMPOSITION FOR PREVENTING OR TREATING DIABETES COMPLICATIONS COMPRISING NOVEL CHRYSIN DERIVATIVE COMPOUND AS ACTIVE INGREDIENT” (FRONTBIO INC., priority 2018, published 2022).
# Read-outs that look alike come from different tables or passages of the source.
# Assays:
# AGE formation = experiment: Bovine serum albumin-methylglyoxal analysis, AGE formation (intermediate stage); format: biochemical
# Method: (2) Bovine Serum Albumin—Methylglyoxal Analysis with Respect to AGE Formation (Intermediate Stage)
# Bovine serum albumin (50 mg/mL) was incubated with methylglyoxal (100 mM) in a sodium phosphate buffer ([…], pH 7.4) at 37° C. for 24 hours in the presence of various concentrations of compounds (including a control group).
# All reagents and samples were sterilized by filtration through […] membrane filters. Fluorescence intensity was measured at an excitation wavelength of 355 nm and an emission wavelength of 460 nm using a luminescence spectrometer LS50B (Perkin-Elmer Ltd., Buckinghamshire, England) (Wu & Yen, 2005). The test was conducted using aminoguanidine as a positive control group. The concentration of each test sample showing 50% inhibitory activity (IC50) was estimated from the least squares regression line of logarithmic concentrations plotted against the residual activity.
# crosslinking of AGEs = experiment: N-acetyl-glycyl-lysine-methyl ester D-ribose assay, crosslinking of AGEs (late stage); format: biochemical; settings: for IC50: read-out: IC50 (AGE crosslinking, late stage)
# Method: (3) N-acetyl-glycyl-lysine-methyl ester D-ribose assay on crosslinking of AGEs (late stage)
# This test was used to evaluate the ability of the sample to inhibit crosslinking of GK peptides in the presence of D-ribose using the method described by Rahbar et al. (1999). The GK peptide (26.7 mg/mL) was incubated with D-ribose (200 mg/mL) under aseptic conditions in sodium phosphate buffer (0.5 M, pH 7.4) at 37° C. for 24 hours. The synthesized compound was added to the model system at a final concentration of 1 mM, excluding the aminoguanidine used at 10 mM and 50 mM. At the end of the incubation period, fluorescence intensity was measured at an excitation wavelength of 335 nm and an emission wavelength of 460 nm.
# [1] = Solubility analysis in distilled water (HPLC); format: physicochemical; settings: for solubility in water, times higher than Comparative Example 1: versus Comparative Example 1
# Method: The chrysin and derivatives thereof were dissolved in distilled water and sonicated for 1 hour to maximize solubility and incubated at 37° C. After sonication, undissolved samples were removed by centrifugation (7000 g, 37° C., 5 min). The concentration of the sample was analyzed by HPLC by diluting the supernatant with methanol and filtering through a 0.45 μm disposable syringe filter (Advantec, Dublin, Calif., USA).
# [2] = test system: formation of Amadori compound; experiment: Hemoglobin-δ-gluconolactone assay, formation of Amadori compound (initial stage); format: biochemical, human; settings: for initial inhibitory activity, times higher than the positive control: versus positive control group (aminoguanidine)
# Method: (1) Analysis of Hemoglobin-δ-Gluconolactone with Respect to Formation of Amadori Compound (Initial Stage)
# Evaluation of the initial stage of protein glycosylation was determined by δ-gluconolactone assay (Rahbar et al., 1999). Briefly, fresh human blood (50 mg/mL) was cultured with glucose (144 mg/mL) in a phosphate buffer (pH 7.4) containing 0.2 g/L of NaN3 under conditions of […] at 37° C. for 7 days.
# In certain experiments, an indicated sample was added in a concentration range of 0.01 to 1 mM to a model system. Fluorescence of the sample was measured at maximum excitation and emission values of 355 nm and 460 nm, respectively. The test was conducted using aminoguanidine, a known inhibitor, as a positive control group.
# RAW 264.7 cells = experiment: NO production in LPS-induced RAW 264.7 cells (Griess reagent); format: cell-based; settings: 24 hours, FIG. 1A
# Method: The cytotoxicity of chrysin and derivatives thereof in RAW 264.7 cells was investigated using a MTS assay kit. Cells (1.6×10^4/well) were cultured in 96-well plates and treated with samples (10, 25 and 100 μM) for 12, 24, 48 and 72 hours. After culture, a MTS solution was incubated at 20 μL/well at 37° C. in a humidified 5% CO2 atmosphere for 90 minutes. The optical density at 490 nm was measured three times using an EL-800 universal microplate reader (Bio-Tek Instrument Inc., Winooski, USA). The cell viability of a untreated group was set at 100%. RAW 264.7 cells were seeded at a density of 4×10^5 cells/well on a 12-well plate and incubated with LPS (1 μg/mL) and samples of various concentrations for 24 hours. The concentration of […] (NO) in the medium was measured using a Griess reagent system described by the manufacturer. The production of NO was measured at 570 nm using an EL-800 Universal microplate reader (Bio-Tek Instrument Inc., Winooski, USA) and compared with the nitrite standard calibration curve.
SMILES,"activity against AGE formation, times higher than the positive control group (AGE formation; versus aminoguanidine)",inhibitory activity (late stage) (crosslinking of AGEs; at a concentration of 10.0 mg/mL),Solubility in water ([1]; 37° C.),IC50 (AGE formation),IC50 (crosslinking of AGEs),"solubility at 1 h ([1]; distilled water, water, thermodynamic from solid, 37° C.)","initial inhibitory activity, times higher than the positive control [2]","solubility in water, times higher than Comparative Example 1 [1]","inhibitory activity against formation of the Amadori compound, times higher than chrysin ([2]; versus chrysin)",IC50 (crosslinking of AGEs; unit inferred),effect on NO production (RAW 264.7 cells)
"O=c1cc(-c2ccccc2)oc2cc(O)cc(O)c12 [Comparative Example 1, 5,7-dihydroxy-2-phenyl-4H-chromen-4-one, reference compound]",5.48 times,did not exhibit inhibitory activity,30 µM,,,,,,,,
"N=C(N)NN [Positive control group (Aminoguanidine), aminoguanidine, reference compound]",,,,137 µM,1900 µM,30 µM,,,,,
"CC(=O)Oc1cc(O)c2c(=O)cc(-c3ccccc3)oc2c1 [Synthesis Example 1, 5-hydroxy-4-oxo-2-phenyl-4H-chromen-7-yl acetate]",,,86 µM,21.6 µM,,,4.66 times,2.87 times,,,
"CC(=O)Oc1cc(OC(C)=O)c2c(=O)cc(-c3ccccc3)oc2c1 [Synthesis Example 2, 4-oxo-2-phenyl-4H-chromen-5,7-diyl diacetate]",,,265 µM,0.91 µM,,,422.07 times,8.83 times,66.96 times,22.3 µM,inhibited NO in a concentration-dependent manner
"COc1cc(OC)c2c(=O)cc(-c3ccccc3)oc2c1 [Synthesis Example 5, 5,7-dimethoxy-2-phenyl-4H-chromen-4-one]",,,,41.8 µM,,,13.92 times,,,39.9 µM,
